The source of these data is patent publication EP2945947B1, “INHIBITING THE TRANSIENT RECEPTOR POTENTIAL A1 ION CHANNEL” (Merck Sharp & Dohme Corp., priority 2013, dated 2014).

The subject of data set [1] is rats. Kind of data set: Single-dose toxicity studies in rats (Example 7). Type of data set: in vivo. As for the experimental part: (§1) In one single dose PK study conducted in fed and fasted rats, oral administration of Comparative Compound 2 in 30% HPCD produced adverse clinical signs in some of the fasted rats only.
(§2) Intravenous administration of Comparative Compound 2 (a nanosuspension formulation in 0.5% polysorbate 80 and 0.1% Poloxamer 188 and 0.8%NaCl) at dose levels of 3, 10, and 30 mg/kg as a single slow bolus (∼2 min) to male SD rat was well-tolerated.
(§3) Intravenous administration of Compound 1-B as a single, 30-minute infusion to SD female rats was well-tolerated at dose levels up to 300 mg/kg. No adverse clinical signs were observed concerning Compound 1-B.
(§4) Intravenous administration of Compound 5-T as a single, 30-minute infusion to SD female rats was well-tolerated at dose levels up to 300 mg/kg. No adverse clinical signs were observed concerning Compound 5-T.
(§5) A single oral dose administration of Compound 5-T in a Spray Dried Dispersion (SDD) formulation (a suspension of SDD powder) at nominal doses of 3, 30, 100, and 300 mg/kg to fed female Sprague Dawley rats were well-tolerated. No adverse clinical signs were observed concerning Compound 5-T.

The nature of data set [2]: Single-dose toxicity studies in rats (Example 7). It is filed as in vivo. The note with it: rat, in vivo; single IP administration 100 mg/Kg, rats; read-out: plasma Cmax. As for the experimental part:
as §1, §2, §3, §4, §5

Data set [3] is described as follows: Aqueous solubility in buffered solutions, HPLC (Example 2). Conditions: kinetic from dmso stock, ambient temperature. Type of data set: physicochemical.
Data set [4] relates to Female Sprague Dawley rats. Kind of data set: Rodent acute tolerability test with liver function tests (Example 5). It is filed as in vivo, rat. On the set-up: key to Alterations in LFT: (↔) indicates blood levels of markers for potential liver damage within normal range; (↑) indicates blood levels of markers for potential liver damage elevated above normal range. Conditions: for Alterations in LFT / LFT: % upper normal range ALT serum levels / LFT: % upper normal range AST serum levels: single IV bolus dose 100 mg/kg, about 24 hours post dose. As for the experimental part:
Compounds of Formula (Ia) were assessed for acute tolerability in a rodent model at dose levels ranging from 100 - 200 mg/kg based upon the minimum efficacious dose of each compound. Female Sprague Dawley rats were administered up to a 10 mL/kg dose volume of each compound in 0.9% saline at appropriate concentrations as an intravenous bolus via the lateral tail vein. The animals were observed immediately post dose and for up to twenty four hours post dose and clinical observations were recorded. Additionally, approximately twenty four hours post dose animals were euthanized and blood taken for serum chemistry analysis with a focus on liver function tests (LFTs). The maximum tolerated single dose and LFT results are summarized in Table 3, where (↔) indicates blood levels of markers for potential liver damage within normal range and (↑) indicates blood levels of markers for potential liver damage elevated above normal range. Referring to the data in Table 3, LFT blood levels of markers for potential liver damage remained within normal range for the compounds of Formula (Ia), while LFTs were elevated for Comparator Compounds including 5-10 fold elevation above normal for ALT and AST blood levels observed upon administration of Comparative Compound 1. […]

For data set [5], the target named is human TRPA1 (Homo sapiens, UniProt O75762). The experiment in a line: Inhibition of the TRPA1 ion channel, whole cell patch configuration (Example 1). Conditions: current activation 10 µM AITC, read-out: Human TRPA1 IC50 Inward Current. It is filed as cell-based. As for the experimental part:
Compounds of Formula (Ia) inhibit the TRPA1 channel, as measured using the method of Example 1. […] Data for TRPA1 inhibition and for TRPA1 selectivity was obtained by this method for the indicated compounds of Formula (Ia), with the relevant data included in Tables 1a - f below. All currents were recorded in whole-cell configuration using EPC-9 and EPC-10 amplifiers and Patchmaster software (HEKA). […] The standard pipette solution consisted of 140mM CsAsp, 10 mM EGTA, 10 mM HEPES, 2.27 mM MgCl2, 1.91 mM CaCl2, 4 mM MgATP, and 0.1-0.3 mM Na2GTP, with pH adjusted to 7.2 with CsOH. In addition, a solution containing 145 mM CsCl, 10 mM HEPES, 10 mM EGTA and 1 mM MgCl2 (pH 7.2 adjusted with CsOH) can be used. The standard bath solution contained 150 mM NaCl, 10 mM HEPES, 10 mM glucose, 4.5 mM KCl, 1 mM EGTA, 3 mM MgCl2, with pH adjusted to 7.4 with NaOH. In some instances, 2 mM CaCl2 was added in place of EGTA and the concentration of MgCl2 was reduced to 1 mM.
Data were collected either by continuous recordings at -60 mV or by applying voltage ramps from a holding potential of 0 mV every 4 s. Continuous recordings were collected at 400 Hz and digitally filtered off-line at 10 Hz for presentation. Voltage ramps were applied from - 100 mV to 100 mV over the course of 400 ms, and data were collected at 10 kHz and filtered at 2.9 kHz. Inward and outward currents were analyzed from the ramps at -80 and 80 mV, respectively. Liquid junction potential correction was not used.
Solutions were switched using a gravity-fed continuous focal perfusion system. To achieve rapid temperature changes, two temperature control, and perfusion systems were employed simultaneously. For temperatures ≥ 22°C, a Warner Instruments bipolar temperature controller (TC-344B) and inline heater (SHM-8) were used. […] Temperatures were confirmed using a thermistor (Warner Instruments, TA-29), with temperatures at the recorded cell estimated to be within +/- 2°C of those reported.
The antagonist effects of compounds of Formula (Ia) against human TRPA1 ("hTRPA1") and for some compounds rat TRPA1 ("rTRPA1") in a whole cell patch configuration were evaluated using the in vitro assay described above. The current activation tested was 10 µM AITC, and the tested concentrations ranged from 5 µM and 500 nM. Table 1a (Comparative Compounds)

Data set [6] concerns rat. The experiment in a line: Rodent cold plate pain model, Complete Freund's Adjuvant (Example 4). It is filed as in vivo. The note with it: cold plate 1 °C, Figures 1 and 2. As for the experimental part: CFA-induced pain test method reported in del Camino et al., J. Neurosci., 30 (45):15165-15174. Briefly, the right hind paw is sensitized to cold temperature (allodynic) by administering 0.1 mL of Complete Freund's Adjuvant (CFA) to that paw. Two to four days later, the time it takes for the animal to lift its CFA-injected paw from the cold surface is recorded compared to its un-injected normal left hind paw. […] To avoid tissue damage, the maximum cut-off time is five minutes. Animals that are allodynic (average PWL to the first three pain behaviors <150 seconds for the CFA-injected hind paw: ∼ ≥50% difference between the normal and CFA-injected paw) are included in the study and subsequently randomized across treatment groups. The following day, the animals in some groups are dosed with a test compound under blinded conditions. Following the one to two hour pre-treatment time, the post-dose PWL readings are taken again. The efficacy of the drug treatment is assessed by comparing the PWL in the drug treatment animals to those that receive the vehicle.

For data set [7], the system named is rats. Kind of data set: Rodent formalin pain model (Example 3). Type of data set: in vivo. Conditions: rat; for Minimal Efficacious Dose of Compound in Formalin Model: IV, statistically significant difference vs vehicle at 0 - 2 min (p≤0.05); for Duration of Pain Behavior: first two minutes after formalin, vehicle 88.6. The method, then:
Compounds of Formula (Ia) are active in rodent models of pain induced by direct activation of the TRPA1 channel with intraplantar injection of the TRPA1 agonist formalin. Compounds of Formula (Ia) were tested in the formalin-induced pain test reported by Abbott et. al. Pain. 1995 Jan;60(1):91-102. Dubuisson et al. describe a method for assessing pain and analgesia in rats. Briefly, dilute formalin (50 µL of 3 % formalin) is injected into the plantar surface of the hind paw. […] The individual responsible for counting the pain behaviors in a particular study is blinded to the treatment groups.
Table 2 is a data table showing the results from testing compounds of Formula (Ia) in the rodent formalin-induced pain model described in […]. Rats were treated with the compounds of Formula (Ia) at various doses (0.1, 0.3, 1, 1.2, 3, 4, 10, or 30 mg/Kg IV) or with a control composition containing the vehicle (i.e., without a compound of Formula (Ia)). Pain behaviors (flinch, lift, lick, bite) were monitored following intraplantar formalin injection. Referring to Table 2, the minimum effective dose was derived from dose resulting in statistically significant difference in behavior at 0 - 2 min time period as compared with vehicle (p≤0.05).

Where [8] appears, read: sodium bicarbonate buffer in water for injection/5% dextrose, pH 9.0, 50 mM sodium bicarbonate, read-out: pH 9.0 aqueous solubility.
The mark [9] stands for this setting: sodium phosphate buffer in water for injection/5% dextrose, pH 7.4, 75 mM sodium phosphate, read-out: pH 7.4 aqueous solubility.

In brackets after ≈: the same amount, converted by molar mass. Structures can show the parent of a compound that is named as a salt. Where two headings read alike, the source gives them in different places.

human TRPA1, sequence (O75762 whole entry): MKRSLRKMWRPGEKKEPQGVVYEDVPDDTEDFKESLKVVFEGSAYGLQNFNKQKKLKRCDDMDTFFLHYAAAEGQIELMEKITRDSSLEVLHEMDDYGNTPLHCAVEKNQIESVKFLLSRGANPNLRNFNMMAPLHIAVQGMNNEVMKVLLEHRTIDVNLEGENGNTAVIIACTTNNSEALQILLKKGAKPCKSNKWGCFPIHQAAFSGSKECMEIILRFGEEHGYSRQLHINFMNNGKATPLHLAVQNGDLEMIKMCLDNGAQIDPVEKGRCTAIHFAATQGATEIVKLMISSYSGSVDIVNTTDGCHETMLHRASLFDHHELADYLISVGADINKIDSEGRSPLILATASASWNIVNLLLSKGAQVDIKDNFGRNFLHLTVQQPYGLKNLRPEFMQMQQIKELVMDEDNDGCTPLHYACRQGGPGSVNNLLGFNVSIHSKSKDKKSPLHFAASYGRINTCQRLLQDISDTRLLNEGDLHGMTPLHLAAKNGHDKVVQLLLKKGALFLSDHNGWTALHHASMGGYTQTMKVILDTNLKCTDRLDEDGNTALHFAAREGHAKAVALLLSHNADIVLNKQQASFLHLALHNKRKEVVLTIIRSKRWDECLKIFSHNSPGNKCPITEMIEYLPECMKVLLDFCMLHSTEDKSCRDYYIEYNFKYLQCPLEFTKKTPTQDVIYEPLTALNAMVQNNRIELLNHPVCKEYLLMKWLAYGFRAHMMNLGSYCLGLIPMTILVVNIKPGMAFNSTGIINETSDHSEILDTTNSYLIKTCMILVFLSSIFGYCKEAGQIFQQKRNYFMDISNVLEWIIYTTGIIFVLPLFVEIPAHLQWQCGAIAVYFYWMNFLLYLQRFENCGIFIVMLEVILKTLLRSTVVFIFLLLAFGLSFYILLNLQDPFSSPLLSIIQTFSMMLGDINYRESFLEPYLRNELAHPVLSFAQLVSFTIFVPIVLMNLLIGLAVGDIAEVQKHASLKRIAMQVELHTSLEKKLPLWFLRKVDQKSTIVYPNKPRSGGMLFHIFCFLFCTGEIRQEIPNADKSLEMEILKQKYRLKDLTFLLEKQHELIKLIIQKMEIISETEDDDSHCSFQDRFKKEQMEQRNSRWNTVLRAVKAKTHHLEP

By Cmax is commonly meant the highest concentration seen after dosing. In general, IC50 refers to the concentration needed to halve the response being measured. On to `C[C@H]1CCCN1c1ncc(-c2cccc(NC(=O)Cn3cnc4c3c(=O)n(C)c(=O)n4C)n2)cn1` [Comparator 2, reference compound], for which, in data set [1] (IV single slow bolus, nanosuspension formulation, 3, 10, and 30 mg/kg, male SD rat), the tolerability result is listed as “well-tolerated”. Besides, the clinical observations result in data set [1] (IV single slow bolus, nanosuspension formulation, all three dose levels (3, 10, 30 mg/kg), ~1hr postdose, male SD rat) is on record as “Mild flushing/mild swelling of the ears”. In addition, the clinical signs entry in data set [1] (single IP administration 100 mg/Kg, rats, approximately 30 minutes to 4 hours) is on record as “mild to moderate lethargy”. Moreover, in data set [1] (single oral dose in 30% HPCD, 50 mg/kg and 100 mg/kg, fasted female rats only (two of three and one of three)), the adverse clinical signs entry was “labored breathing and red urine”. Further, in data set [2], the peak concentration (Cmax) was around 110 µg/mL. Further, the solubility kinetic at 24 h stood at 9 µg/mL (≈ 18.9 µM) in data set [3] (buffered solution (sodium acetate buffer), pH 4.0, 50mM sodium acetate in 5% dextrose, read-out: pH 4.0 aqueous solubility); 10 µg/mL (≈ 21 µM) in data set [3] (buffered solution (sodium bicarbonate buffer), pH 9.0, 50 mM sodium bicarbonate, read-out: pH 9.0 aqueous solubility); 7 µg/mL (≈ 14.7 µM) in data set [3] (buffered solution (sodium phosphate buffer), pH 7.4, 75 mM sodium phosphate, read-out: pH 7.4 aqueous solubility). Besides, in data set [4] (animal studies of Example 5), the “serum biomarkers of hepatotoxicity” value is recorded as “did not elevate the serum biomarkers of hepatotoxicity”. Also, the half-maximal inhibitory concentration (IC50) in data set [5] lay in the range of 76 to 100 nM. In addition, the “Paw Withdrawal Latency, CFA cold allodynia” value in data set [6] is “significantly less potency”.

With `CC(C(=O)N(COP(=O)(O)O)c1cccc(-c2cnc(N3CCCC3C(F)(F)F)nc2)n1)n1cnc2c1c(=O)n(C)c(=O)n2C` (stereo not shown) [Compound 1-A, phosphate, sodium salt], the solubility kinetic at 24 h in data set [3] (setting [8]) and in data set [3] (setting [9]) was above 1000 µg/mL throughout. For the same compound, the “Alterations in LFT” value in data set [4] is listed as “↔”. For the same compound, the “LFT: % upper normal range ALT serum levels” value in data set [4] is recorded as below 100%/<100%. In addition, the “LFT: % upper normal range AST serum levels” value in data set [4] is recorded as below 100%/<100%. For the same compound, the IC50 in data set [5] is above 100 nM. For the same compound, the “Paw Withdrawal Latency, CFA cold allodynia” value in data set [6] is on record as “reversal of CFA Cold Allodynia”. Also, the “Minimal Efficacious Dose of Compound in Formalin Model” value (shortened to “Minimal Efficacious Dose of Compound”) in data set [7] worked out at 1.2 mg/kg. For the same compound, the “Duration of Pain Behavior” value in data set [7] (dose 0.3 mg/kg IV) was 77.7 s; in data set [7] (dose 1.2 mg/kg IV), 43.3 s; in data set [7] (dose 4 mg/kg IV) it was 19.8 s.

On to `C[C@@H](C(=O)N(COP(=O)(O)O)c1cncc(-c2cnc(N3CCC[C@H]3C(F)(F)F)nc2)n1)n1cnc2c1c(=O)n(C)c(=O)n2C` [Compound 5-S, ((S)-2-(1,3-dimethyl-2,6-dioxo-1,2,3,6-tetrahydro-7H-purin-7-yl)-N-(6-(2-((S)-2-(trifluoromethyl)pyrrolidin-1-yl)pyrimidin-5-yl)pyrazin-2-yl)propanamido)methyl dihydrogen phosphate], for which the solubility kinetic at 24 h in data set [3] (setting [8]) and in data set [3] (setting [9]) was above 1000 µg/mL throughout. In data set [4], the “Alterations in LFT” value was “↔”. Also, in data set [4], the “LFT: % upper normal range ALT serum levels” value was below 100%/<100%. Further, the “LFT: % upper normal range AST serum levels” value in data set [4] is reported as below 100%/<100%. Also, in data set [5], the IC50 is above 100 nM. Besides, the “Minimal Efficacious Dose of Compound” value in data set [7] is on record as 3 mg/kg. Moreover, the “Duration of Pain Behavior” value in data set [7] (dose 0.3 mg/kg IV) came out at 69.8 s; in data set [7] (dose 1 mg/kg IV) it was 52.3 s; in data set [7] (dose 3 mg/kg IV), 8.4 s; in data set [7] (dose 10 mg/kg IV) it was 0 s.

`C[C@@H](C(=O)N(COP(=O)(O)O)c1cncc(-c2cnc(N3CCCC3(C)C)nc2)n1)n1cnc2c1c(=O)n(C)c(=O)n2C` [Compound 2-E, (S)-(2-(1,3-dimethyl-2,6-dioxo-1,2,3,6-tetrahydro-7H-purin-7-yl)-N-(6-(2-(2,2-dimethylpyrrolidin-1-yl)pyrimidin-5-yl)pyrazin-2-yl)propanamido)methyl dihydrogen phosphate]: the solubility kinetic at 24 h in data set [3] (setting [8]) and in data set [3] (setting [9]) was above 1000 µg/mL each time. Moreover, the “Alterations in LFT” value in data set [4] was “↔”. Besides, in data set [4], the “LFT: % upper normal range ALT serum levels” value is on record as below 100%/<100%. Also, in data set [4], the “LFT: % upper normal range AST serum levels” value is below 100%/<100%. Moreover, the IC50 in data set [5] is above 100 nM. Further, in data set [7], the “Minimal Efficacious Dose of Compound” value came out at 3 mg/kg. The figures for the “Duration of Pain Behavior” value in data set [7] (dose 0.3 mg/kg IV), in data set [7] (dose 1 mg/kg IV) and in data set [7] (dose 3 mg/kg IV) were 80.4 s, 77 s and 15.1 s, respectively.
